# Key:
# Assay type in all cases: cell-based
# [1] = tested on: HeLa-MaTu-ADR, multidrug-resistant human cervical carcinoma cells; experiment: Proliferation assay (crystal violet), HeLa-MaTu-ADR; settings: read-out: Inhibition of HeLa/MaTu/ADR cell proliferation
# Experimental: (§1) Cultivated tumour cells (NCI-H460, human non-small cell lung carcinoma cells, ATCC HTB-177; DU 145, hormone-independent human prostate carcinoma cells, ATCC HTB-81; HeLa-MaTu, human cervical carcinoma cells, EPO-GmbH, Berlin; HeLa-MaTu-ADR, multidrug-resistant human cervical carcinoma cells, EPO-GmbH, Berlin; HeLa human cervical tumour cells, ATCC CCL-2; Caco-2 human colorectal carcinoma, ATCC HTB-37; B16F10 mouse melanoma cells, ATCC CRL-6475) were plated at a density of 5000 cells/well (DU145, HeLa-MaTu-ADR), 3000 cells/well (NCI-H460, HeLa-MaTu, HeLa), 1500 cells/well (Caco-2), or 1000 cells/well (B16F10) in a 96-well multititer plate in 200 μL of their respective growth medium supplemented 10% fetal calf serum. After 24 hours, the cells of one plate (zero-point plate) were stained with crystal violet (see below), while the medium of the other plates was replaced by fresh culture medium (200 μl), to which the test substances were added in various concentrations (0 μM, as well as in the range of 0.001-10 μM; the final concentration of the solvent dimethyl sulfoxide was 0.5%). The cells were incubated for 4 days in the presence of test substances. Cell proliferation was determined by staining the cells with crystal violet: the cells were fixed by adding 20 μl/measuring point of an 11% glutaric aldehyde solution for 15 minutes at room temperature. After three washing cycles of the fixed cells with water, the plates were dried at room temperature. The cells were stained by adding 100 μl/measuring point of a 0.1% crystal violet solution (pH 3.0). After three washing cycles of the stained cells with water, the plates were dried at room temperature. The dye was dissolved by adding 100 μl/measuring point of a 10% acetic acid solution. The extinction was determined by photometry at a wavelength of 595 nm. The change of cell number, in percent, was calculated by normalization of the measured values to the extinction values of the zero-point plate (=0%) and the extinction of the untreated (0 μm) cells (=100%). The IC50 values were determined by means of a 4 parameter fit.
# [2] = tested on: B16F10 mouse melanoma cells; experiment: Proliferation assay (crystal violet), B16F10; settings: B16-F10, read-out: Inhibition of B16F10 cell proliferation
# Experimental: as §1
# [3] = tested on: HeLa human cervical tumour cells; experiment: Proliferation assay (crystal violet), HeLa; settings: read-out: Inhibition of HeLa cell proliferation
# [4] = tested on: NCI-H460, human non-small cell lung carcinoma cells; experiment: Proliferation assay (crystal violet), NCI-H460; settings: read-out: Inhibition of H460 cell proliferation (activity range)
# Experimental: as §1
# [5] = tested on: Caco-2 human colorectal carcinoma; experiment: Proliferation assay (crystal violet), Caco-2; settings: CACO-2 cells, read-out: Inhibition of CACO-2 cell proliferation
Structure (SMILES),IC50 [1] [µM],IC50 [2] [µM],IC50 [3] [µM],IC50 [4] [µM],IC50 [5] [µM]
"CS(=O)(=O)Cc1cccc(Nc2ncnc(-c3ccc(F)cc3OCc3ccccc3)n2)c1 [Example 4, 4-[2-(Benzyloxy)-4-fluorophenyl]-N-{3-[(methylsulfonyl)methyl]phenyl}-1,3,5-triazin-2-amine]",0.1,0.13,0.1,0.15,–
"COc1cc(F)ccc1-c1ncnc(Nc2cccc(CS(=O)(=O)C3CCCCC3)c2)n1 [Example 9, N-{3-[(Cyclohexylsulfonyl)methyl]phenyl}-4-(4-fluoro-2-methoxyphenyl)-1,3,5-triazin-2-amine]",0.42,1.3,1,0.69,0.58
"CS(=O)(=O)Cc1cccc(Nc2ncnc(-c3cccc4c3OCCC4)n2)c1 [Example 12, 4-(3,4-Dihydro-2H-chromen-8-yl)-N-{3-[(methylsulfonyl)methyl]phenyl}-1,3,5-triazin-2-amine]",0.23,0.51,0.34,0.41,0.39
"CS(=O)(=O)Cc1cccc(Nc2ncnc(-c3cccc4c3OCCO4)n2)c1 [Example 18, 4-(2,3-Dihydro-1,4-benzodioxin-5-yl)-N-{3-[(methylsulfonyl)methyl]phenyl}-1,3,5-triazin-2-amine]",0.4,0.64,0.53,0.73,0.69
"CS(=O)(=O)Cc1cccc(Nc2ncnc(-c3ccccc3OCc3cccc(Cl)c3)n2)c1 [Example 28, 4-{2-[(3-Chlorobenzyl)oxy]phenyl}-N-{3-[(methylsulfonyl)methyl]phenyl}-1,3,5-triazin-2-amine]",0.35,0.39,0.36,0.37,0.32
"CS(=O)(=O)Cc1cccc(Nc2ncnc(-c3ccc(Cl)cc3OC3CCCC3)n2)c1 [Example 29, 4-[4-Chloro-2-(cyclopentyloxy)phenyl]-N-{3-[(methylsulfonyl)methyl]phenyl}-1,3,5-triazin-2-amine]",0.4,0.64,0.53,0.73,0.69
"CCCCOc1cc(F)ccc1-c1ncnc(Nc2cccc(CS(C)(=O)=O)c2)n1 [Example 44, 4-(2-Butoxy-4-fluorophenyl)-N-{3-[(methylsulfonyl)-methyl]phenyl}-1,3,5-triazin-2-amine]",0.32,0.57,0.34,0.44,1
"CS(=O)(=O)Cc1cccc(Nc2ncnc(-c3ccc(F)cc3OCCCC(F)(F)F)n2)c1 [Example 59, 4-[4-Fluoro-2-(4,4,4-trifluorobutoxy)phenyl]-N-{3-[(methylsulfonyl)methyl]phenyl}-1,3,5-triazin-2-amine]",0.22,0.33,0.47,0.35,0.57
"CS(=O)(=O)Cc1cccc(Nc2ncnc(-c3ccc(F)cc3OCc3cccc(Cl)c3)n2)c1 [Example 85, 4-{2-[(3-Chlorobenzyl)oxy]-4-fluorophenyl}-N-{3-[(methylsulfonyl)methyl]phenyl}-1,3,5-triazin-2-amine]",0.35,0.45,0.32,0.36,0.56
"CS(=O)(=O)Cc1cccc(Nc2ncnc(-c3ccc(F)cc3OCc3ccncc3)n2)c1 [Example 89, 4-[4-Fluoro-2-(pyridin-4-ylmethoxy)phenyl]-N-{3-[(methylsulfonyl)methyl]phenyl}-1,3,5-triazin-2-amine]",0.34,0.25,0.11,0.17,0.31

# The remaining lines, values ahead:
IC50 [1] [µM],IC50 [2] [µM],IC50 [3] [µM],IC50 [4] [µM],IC50 [5] [µM],Structure (SMILES)
0.4,1,0.68,0.91,–,"COc1cc(F)c(F)cc1-c1ncnc(Nc2cccc(CS(C)(=O)=O)c2)n1 [Example 1, 4-(4,5-Difluoro-2-methoxyphenyl)-N-{3-[(methylsulfonyl)methyl]phenyl}-1,3,5-triazin-2-amine]"
0.92,1.7,–,1.2,–,"COc1cc(F)ccc1-c1ncnc(Nc2cccc(CS(C)(=O)=O)c2)n1 [Example 3, 4-(4-Fluoro-2-methoxyphenyl)-N-{3-[(methylsulfonyl)methyl]phenyl}-1,3,5-triazin-2-amine]"
0.08,0.27,0.11,0.22,–,"COc1cc(F)ccc1-c1ncnc(Nc2cc(F)cc(CS(C)(=O)=O)c2)n1 [Example 10, 4-(4-Fluoro-2-methoxyphenyl)-N-{3-fluoro-5-[(methylsulfonyl)methyl]phenyl}-1,3,5-triazin-2-amine]"
0.16,0.28,0.29,0.2,–,"CS(=O)(=O)Cc1cccc(Nc2ncnc(-c3cc(F)ccc3OCc3cccc(F)c3)n2)c1 [Example 31, 4-{5-Fluoro-2-[(3-fluorobenzyl)oxy]phenyl}-N-{3-[(methylsulfonyl)methyl]phenyl}-1,3,5-triazin-2-amine]"
0.18,0.46,0.34,0.34,–,"COc1cc(F)ccc1-c1ncnc(Nc2ccc(F)c(CS(C)(=O)=O)c2)n1 [Example 33, 4-(4-Fluoro-2-methoxyphenyl)-N-{4-fluoro-3-[(methylsulfonyl)methyl]phenyl}-1,3,5-triazin-2-amine]"
0.51,0.82,0.64,0.6,–,"COc1cc(F)ccc1-c1ncnc(Nc2cccc(CS(=O)(=O)C3CC3)c2)n1 [Example 40, N-{3-[(Cyclopropylsulfonyl)methyl]phenyl}-4-(4-fluoro-2-methoxyphenyl)-1,3,5-triazin-2-amine]"
0.22,0.37,0.33,0.29,–,"CCOc1cc(F)ccc1-c1ncnc(Nc2cccc(CS(C)(=O)=O)c2)n1 [Example 42, 4-(2-Ethoxy-4-fluorophenyl)-N-{3-[(methylsulfonyl)-methyl]phenyl}-1,3,5-triazin-2-amine]"
0.32,0.96,0.84,0.49,0.4,"CS(=O)(=O)Cc1cccc(Nc2ncnc(-c3ccc(F)cc3OCC3CC3)n2)c1 [Example 55, 4-[2-(Cyclopropylmethoxy)-4-fluorophenyl]-N-{3-[(methylsulfonyl)methyl]phenyl}-1,3,5-triazin-2-amine]"
0.38,0.74,0.59,0.61,1.1,"CS(=O)(=O)Cc1cccc(Nc2ncnc(-c3ccc(F)cc3OCCF)n2)c1 [Example 61, 4-[4-Fluoro-2-(2-fluoroethoxy)phenyl]-N-{3-[(methylsulfonyl)methyl]phenyl}-1,3,5-triazin-2-amine]"
0.18,0.24,0.11,0.16,–,"CC#CCOc1cc(F)ccc1-c1ncnc(Nc2cccc(CS(C)(=O)=O)c2)n1 [Example 62, 4-[2-(But-2-yn-1-yloxy)-4-fluorophenyl]-N-{3-[(methylsulfonyl)methyl]phenyl}-1,3,5-triazin-2-amine]"
0.35,0.44,0.51,0.38,0.74,"Cc1cccc(COc2cc(F)ccc2-c2ncnc(Nc3cccc(CS(C)(=O)=O)c3)n2)c1 [Example 83, 4-{4-Fluoro-2-[(3-methylbenzyl)oxy]phenyl}-N-{3-[(methylsulfonyl)-methyl]phenyl}-1,3,5-triazin-2-amine]"
0.74,0.37,0.32,0.34,0.73,"Cc1cc(COc2cc(F)ccc2-c2ncnc(Nc3cccc(CS(C)(=O)=O)c3)n2)ccn1 [Example 87, 4-{4-Fluoro-2-[(2-methylpyridin-4-yl)methoxy]-phenyl}-N-{3-[(methylsulfonyl)methyl]phenyl}-1,3,5-triazin-2-amine]"
0.27,0.23,0.19,0.21,–,"CS(=O)(=O)Cc1cccc(Nc2ncnc(-c3ccc(F)cc3OCc3ccnc(Cl)c3)n2)c1 [Example 88, 4-{2-[(2-Chloropyridin-4-yl)methoxy]-4-fluorophenyl}-N-{3-[(methylsulfonyl)-methyl]phenyl}-1,3,5-triazin-2-amine]"
